Here are results for 23 molecules from patent US20230173047A1, “CITRULLINATED NUCLEOPHOSMIN PEPTIDES AS CANCER VACCINES” (SCANCELL LIMITED, priority 2020, published 2023).

Holding throughout (format): in vivo, mouse
Data set [1] concerns T cell response in HLA-DR4 and HHDII/DP4 transgenic mice. Nature of the data set: Screening of citrullinated NPM peptides for T cell (IFNy) responses in HLA-DR4 and HHDII/DP4 transgenic mice. To be noted: for T cell response: citrullinated NPM peptides, HLA-DR4 and HHDII/DP4 transgenic mice, IFNy ELISpot. As to the method: (§1) HLA-DR4 mice (Taconic, USA) and the HHDII/HLA-DP4 transgenic strain of mouse as described in patent WO2013/017545 A1 (EMMA repository, France) were used, aged between 8 and 12 weeks, and cared for by the staff at Nottingham Trent University. All work was carried out under a Home Office project licence. Peptides were dissolved in 10% dimethylformamide to 1 mg/mL and then emulsified (a series of dilutions) with the adjuvant CpG and MPLA 6 µg/mouse of each (Invivogen, UK). Peptides (25 µg/mouse) were injected subcutaneously at the base of the tail.
(§2) ELISpot assays were performed using murine IFNy capture and detection reagents according to the manufacturer’s instructions (Mabtech, Sweden). In brief, anti-IFNʏ antibody was coated onto wells of a 96-well Immobilin-P plate. Synthetic peptides (at a variety of concentrations) and 5×10^5 per well splenocytes were added to the wells of the plate in triplicate. LPS at 5 µg/mL was used as a positive control. Peptide pulsed target cells were added where relevant at 5×10^4 per well in triplicate and plates incubated for 40 hours at 37° C. After incubation, captured IFNy was detected by a biotinylated anti-IFNʏ antibody and developed with a streptavidin alkaline phosphatase and chromogenic substrate. […] For blocking studies, anti-CD4 blocking antibody (RPA-T4) and anti-CD8 blocking antibody (2.43) from Bioxcell were used at 20 µg/mL. Spots were analysed and counted using an automated plate reader (Cellular Technologies Ltd).
T cell responses to tumour associated epitopes are often weak or non-existent due to tolerance and T cell deletion within the thymus. The citrullinated NPM peptides were screened in HLA-DR4 and HHDII/DP4 transgenic mice for their ability to stimulate IFNy responses. Every peptide containing an arginine was selected and the arginine residue was replaced with citrulline (cit).
(§3) Screening was performed to identify potential citrullinated NPM epitopes that could generate an immune response in mice. Mice were immunised with pools of 4-6 human citrullinated peptides. […] Each pool was administered subcutaneously as a single immunisation given once a week for three weeks. Each peptide pool contained 25 µg of each peptide in combination with CpG/MPLA as an adjuvant. Mice were culled 7 days after the third immunisation, the immune response to each peptide within the immunising pool were assessed by ex vivo IFNy ELISpot (FIG. 2). We have previously shown that citrullinated peptides can induce responses in the transgenic DR4 mouse strain. Given that different mouse strains have different MHC repertoires, two different transgenic strains (DR4 and DP4) were used for screening.

Data set [2] deals with splenocytes of HHDII/DP4 transgenic mice. Nature of the data set: Ex vivo IFNy ELISpot on splenocytes after peptide immunisation, HHDII/DP4 mice. To be noted: for IFNy immune response to peptide: HHDII/DP4 mice immunised with peptide pools, 25 µg each + CpG/MPLA, weekly x3, vs media only. As to the method:
as §1, §2, §3
The core epitope was confirmed by immunising mice once weekly for three weeks with 25 µg of the NPM 261-280 cit or 266-285 cit peptide. HHDII/DP4 mice were immunised with the individual peptides whereas HLA-DR4 mice were immunised with a combination of NPM 261-280 cit and 266-285 cit, all given with CpG/MPLA. Mice were culled 7 days after the third immunisation.
To determine if the immune response to the NPM 266-285 peptide is specific to the citrullinated peptide and not the wild type (wt) version, mice were immunised with NPM 266-285 cit or NPM 266-285 wt peptides. HHDII/DP4 mice received 25 µg peptide (NPM 266-285 cit or NPM 266-285 wt) subcutaneously once a week for three weeks. Mice were culled 7 days after the third immunisation, the immune response to each peptide was assessed by ex vivo ELISpot (FIGS. 4A and 4B). […] In contrast, strong IFNy responses were detected in mice immunised with NPM 266-285 cit, these responses were significant when compared to the response to the NPM 266-285 wt peptide (p=0.0002) and the control (p=<0.0001). […]

Data set [3] relates to splenocytes of HLA-DR4 transgenic mice. Nature of the data set: Ex vivo IFNy ELISpot on splenocytes after peptide immunisation, HLA-DR4 mice. As to the method: as §1
ELISpot assays were performed using murine IFNy capture and detection reagents according to the manufacturer’s instructions (Mabtech, Sweden). In brief, anti-IFNʏ antibody was coated onto wells of a 96-well Immobilin-P plate. […] After incubation, captured IFNy was detected by a biotinylated anti-IFNʏ antibody and developed with a streptavidin alkaline phosphatase and chromogenic substrate. […] Spots were analysed and counted using an automated plate reader (Cellular Technologies Ltd).
Screening was performed to identify potential citrullinated NPM epitopes that could generate an immune response in mice. […] Mice were culled 7 days after the third immunisation, the immune response to each peptide within the immunising pool were assessed by ex vivo IFNy ELISpot (FIG. 2). […]

For data set [4], the system named is B16 HHDII/iDP4 tumour cells. To be noted: immunised tumour bearing mice. As to the method: as §1
For tumour challenge experiments, mice were challenged with 1×10^5 B16 HHDII/iDP4, B16F1HHDIIMHCIIKO or B16 HHDII/PAD2KOcDP4 cells subcutaneously on the right flank 3 days before primary immunisation (unless stated otherwise) and then immunised as described above. Tumour growth was monitored at 3-4 days intervals and mice humanely euthanised once tumour reached ≥10 mm in diameter.
The inventors had already established by Western blotting that the melanoma B16F1 cell lines constitutively express NPM and in vitro citrullination of NPM generates citrulline at position 277 (FIG. 5A and B). Next, the anti-tumour effect of NPM 266-285 cit peptide immunisation was assessed in vivo. The effect of immunisation with NPM 266-285 (cit and wt) on the growth of the mouse B16 melanoma cell line transfected with IFNy inducible human DP4 (iDP4) was assessed. […]

Where a SMILES comes first, the peptide text is derived from it. [ ]: non-standard residue; d: D form. Cit = NC(=O)NCCC[C@H](N)C(=O)O

On to MEDSMDMDMSPL-cit-PQNYLFG [1-20], for which the T cell response entry in data set [1] is reported as “No”. Turning to YVKNCF-cit-MTDQEAI QDLWQW [271-290], in data set [1], the T cell response entry is given as “No”. Same read-out and setting: in the case of PSSTP-cit-SKGQESFKKQEKTP [216-235] it was “No”; in that of GKDSKPSSTP-cit-SKGQESFKK [211-230], “No”. The same measure, in the same setting: in the case of EDEEEEDVKLLSISGK-cit-SAP [126-145] it was “No”. For the molecule PVKKSI-cit-DTPAKNAQKSNQN [191-210], the “IFNy immune response to peptide” value in data set [2] is “failed to induce an immune response”. In data set [1], the T cell response result is recorded as “No”.

Consider DENEHQLSL-cit-TVSLGAGAKD [36-55], for which the T cell response result in data set [1] is listed as “No”.

For KSNQNGKDSKPSSTP-cit-SKGQ [206-225], in data set [1], the T cell response entry is on record as “No”. The same measure, in the same setting: for GFETPPVVL-cit-LKCGSGPVH [91-110] the value was “No”.

For the molecule DMDMSPL-cit-PQNYLFGCELKA [6-25], the T cell response result in data set [1] is listed as “No”.

For the molecule FDDEEAEEKAPVKKSI-cit-DTP [181-200], in data set [1], the T cell response entry was “No”. AKFINYVKNCF-cit-MTD [NPM 266-280 cit]: the “Response to core peptide compared with NPM 261-280 cit or NPM 266-285 cit” value in data set [2] (HHDII/DP4 transgenic mice, IFNy ELISpot) was “no significant difference”. In data set [3], the “Response to core peptide compared with NPM 266-285 cit” value is listed as “significant difference”. Moreover, the T cell response result in data set [1] was “Yes”. On to AEEKAPVKKSI-cit-DTPAKNAQ [186-205], for which the “IFNy immune response to peptide” value in data set [2] is given as “failed to induce an immune response”. The T cell response entry in data set [1] is “No”. For PPVVL-cit-LKCGSGPVHISGQH [96-115], in data set [1], the T cell response result was “No”. `CC[C@H](C)[C@H](NC(=O)[C@H](C)NC(=O)[C@H](CCC(=O)O)NC(=O)[C@H](CCC(N)=O)NC(=O)[C@H](CC(=O)O)NC(=O)[C@@H](NC(=O)[C@H](CCSC)NC(=O)[C@H](CCCNC(=N)N)NC(=O)[C@H](Cc1ccccc1)NC(=O)[C@H](CS)NC(=O)[C@H](CC(N)=O)NC(=O)[C@H](CCCCN)NC(=O)[C@@H](NC(=O)[C@H](Cc1ccc(O)cc1)NC(=O)[C@H](CC(N)=O)NC(=O)[C@@H](NC(=O)[C@H](Cc1ccccc1)NC(=O)[C@H](CCCCN)NC(=O)[C@H](C)N)[C@@H](C)CC)C(C)C)[C@@H](C)O)C(=O)N[C@@H](CCC(N)=O)C(=O)O` [NPM 266-285 wt, reference compound] (H-AKFINYVKNCFRMTDQEAIQ-OH): the Associated toxicity result in data set [4] is “no associated toxicity”. Turning to “LPKVEAKFINYVKNCF-cit-MTD [NPM 261-280 cit]”, the “IFNy immune response to peptide” value in data set [2] is on record as “significant immune responses”. In data set [2] (core epitope study, HHDII/DP4 mice immunised with individual peptide 25 µg weekly x3 + CpG/MPLA), the “IFNy response to peptide” value is “Significant IFNʏ responses”. Also, the “Frequency of IFNy responses” value in data set [1] (HHDII/DP4 and HLA-DR4 mice) is “high frequency IFNy responses”. Moreover, the T cell response entry in data set [1] is “Yes”. Turning to LSISGK-cit-SAPGGGSKVPQKK [136-155], the T cell response result in data set [1] is “No”. QLSL-cit-TVSLGAGAKDELHIV [41-60]: the T cell response entry in data set [1] is listed as “No”. For the molecule `CC[C@H](C)[C@H](NC(=O)[C@H](C)NC(=O)[C@H](CCC(=O)O)NC(=O)[C@H](CCC(N)=O)NC(=O)[C@H](CC(=O)O)NC(=O)[C@@H](NC(=O)[C@H](CCSC)NC(=O)[C@H](CCCNC(N)=O)NC(=O)[C@H](Cc1ccccc1)NC(=O)[C@H](CS)NC(=O)[C@H](CC(N)=O)NC(=O)[C@H](CCCCN)NC(=O)[C@@H](NC(=O)[C@H](Cc1ccc(O)cc1)NC(=O)[C@H](CC(N)=O)NC(=O)[C@@H](NC(=O)[C@H](Cc1ccccc1)NC(=O)[C@H](CCCCN)NC(=O)[C@H](C)N)[C@@H](C)CC)C(C)C)[C@@H](C)O)C(=O)N[C@@H](CCC(N)=O)C(=O)O` [NPM 266-285 cit, AKFINYVKNCF-cit-MTDQEAIQ] (H-AKFINYVKNCF[Cit]MTDQEAIQ-OH), the Associated toxicity entry in data set [4] is “no associated toxicity”. As to F-cit-MTDQEAIQDLWQWcitKSL [276-294], the T cell response entry in data set [1] is listed as “No”. For the molecule FKVDNDENEHQLSL-cit-TVSLG [31-50], the T cell response result in data set [1] was “No”.

Turning to TVSLGGFEITPPVVL-cit-LKCG [86-105], in data set [1], the T cell response entry is given as “No”. On the same count and under the same terms, for EDVKLLSISGK-cit-SAPGGGSK [131-150] the value was “No”.
